Assay results reported in PubChem BioAssay (NCI).
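Compound exposure: 48 hours, 5 concentrations, 96-well plates. GI50 = concentration required for 50% inhibition of growth. TGI denotes the concentration required for complete inhibition of growth.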

How the values were obtained:
Assay in all cases: NCI tumour cell line growth inhibition, 48 h
SF-295 CNS = test system: SF-295 CNS
T-47D breast = test system: T-47D breast
A498 renal = test system: A498 renal
OVCAR-3 ovarian = test system: OVCAR-3 ovarian
K-562 leukemia = test system: K-562 leukemia
RXF 393 renal = test system: RXF 393 renal
HT29 colon = test system: HT29 colon
OVCAR-5 ovarian = test system: OVCAR-5 ovarian
OVCAR-4 ovarian = test system: OVCAR-4 ovarian
SK-MEL-28 melanoma = test system: SK-MEL-28 melanoma
NCI-H460 lung = test system: NCI-H460 lung
MOLT-4 leukemia = test system: MOLT-4 leukemia
CAKI-1 renal = test system: CAKI-1 renal
SK-MEL-2 melanoma = test system: SK-MEL-2 melanoma
SF-539 CNS = test system: SF-539 CNS
SNB-19 CNS = test system: SNB-19 CNS
SNB-75 CNS = test system: SNB-75 CNS
SW-620 colon = test system: SW-620 colon
NCI-H23 lung = test system: NCI-H23 lung
SF-268 CNS = test system: SF-268 CNS
DU-145 prostate = test system: DU-145 prostate
SN12C renal = test system: SN12C renal
IGROV1 ovarian = test system: IGROV1 ovarian
786-0 renal = test system: 786-0 renal
SR leukemia = test system: SR leukemia
SK-OV-3 ovarian = test system: SK-OV-3 ovarian
HCT-116 colon = test system: HCT-116 colon
BT-549 breast = test system: BT-549 breast
PC-3 prostate = test system: PC-3 prostate
UO-31 renal = test system: UO-31 renal
NCI-H226 lung = test system: NCI-H226 lung
UACC-62 melanoma = test system: UACC-62 melanoma
TK-10 renal = test system: TK-10 renal
LOX IMVI melanoma = test system: LOX IMVI melanoma
M14 melanoma = test system: M14 melanoma
MDA-MB-435 = test system: MDA-MB-435
KM12 colon = test system: KM12 colon
NCI-H522 lung = test system: NCI-H522 lung
HCC-2998 colon = test system: HCC-2998 colon
NCI/ADR-RES ovarian = test system: NCI/ADR-RES ovarian
RPMI-8226 leukemia = test system: RPMI-8226 leukemia
HCT-15 colon = test system: HCT-15 colon
CCRF-CEM leukemia = test system: CCRF-CEM leukemia
MDA-MB-231 breast = test system: MDA-MB-231 breast
A549 NSCLC = test system: A549 NSCLC
U251 CNS = test system: U251 CNS
SK-MEL-5 melanoma = test system: SK-MEL-5 melanoma
OVCAR-8 ovarian = test system: OVCAR-8 ovarian
UACC-257 melanoma = test system: UACC-257 melanoma
EKVX NSCLC = test system: EKVX NSCLC
COLO 205 colon = test system: COLO 205 colon
ACHN renal = test system: ACHN renal
MALME-3M melanoma = test system: MALME-3M melanoma
MCF7 breast = test system: MCF7 breast
HS 578T breast = test system: HS 578T breast
HL-60(TB) leukemia = test system: HL-60(TB) leukemia
HOP-62 NSCLC = test system: HOP-62 NSCLC
HOP-92 NSCLC = test system: HOP-92 NSCLC

## C/C=C(\C)C(=O)O[C@H]1C=CC(=O)O[C@@H]1CC[C@H](O)[C@H](C)O
SF-295 CNS
  GI50: > 100 µM
  TGI: > 100 µM
T-47D breast
  GI50: 38.6 µM
  TGI: > 87.1 µM
A498 renal
  GI50: > 100 µM
  TGI: > 100 µM
OVCAR-3 ovarian
  GI50: 36.5 µM
  TGI: > 100 µM
K-562 leukemia
  GI50: 33 µM
  TGI: > 100 µM
RXF 393 renal
  GI50: 49.5 µM
  TGI: > 88.7 µM
HT29 colon
  GI50: 30.6 µM
  TGI: 97.5 µM
OVCAR-5 ovarian
  GI50: > 100 µM
  TGI: > 100 µM
OVCAR-4 ovarian
  GI50: 41.6 µM
  TGI: 97.5 µM
SK-MEL-28 melanoma
  GI50: 27.4 µM
  TGI: 74.7 µM
NCI-H460 lung
  GI50: > 77.3 µM
  TGI: > 100 µM
MOLT-4 leukemia
  GI50: 1.99 µM
  TGI: > 100 µM
CAKI-1 renal
  GI50: 27.3 µM
  TGI: 68.4 µM
SK-MEL-2 melanoma
  GI50: 37.6 µM
  TGI: 98.1 µM
SF-539 CNS
  GI50: 30.9 µM
  TGI: > 100 µM
SNB-19 CNS
  GI50: 98.9 µM
  TGI: > 100 µM
SNB-75 CNS
  GI50: 33.3 µM
  TGI: 78.9 µM
SW-620 colon
  GI50: 24 µM
  TGI: 57.6 µM
NCI-H23 lung
  GI50: 69.1 µM
  TGI: > 100 µM
SF-268 CNS
  GI50: 28.8 µM
  TGI: > 100 µM
DU-145 prostate
  GI50: 34 µM
  TGI: > 100 µM
SN12C renal
  GI50: 47 µM
  TGI: > 100 µM
IGROV1 ovarian
  GI50: 42 µM
  TGI: > 100 µM
786-0 renal
  GI50: 46.5 µM
  TGI: > 100 µM
SR leukemia
  GI50: 4.7 µM
  TGI: 42.8 µM
SK-OV-3 ovarian
  GI50: > 100 µM
  TGI: > 100 µM
HCT-116 colon
  GI50: 21.4 µM
  TGI: 67.2 µM
BT-549 breast
  GI50: 27.3 µM
  TGI: 71.2 µM
PC-3 prostate
  GI50: > 86.2 µM
  TGI: > 100 µM
UO-31 renal
  GI50: 20.5 µM
  TGI: > 67.4 µM
NCI-H226 lung
  GI50: 47.4 µM
  TGI: > 100 µM
UACC-62 melanoma
  GI50: 38.5 µM
  TGI: > 73.9 µM
TK-10 renal
  GI50: 50.6 µM
  TGI: > 100 µM
LOX IMVI melanoma
  GI50: 27.5 µM
  TGI: > 78.7 µM
M14 melanoma
  GI50: 34 µM
  TGI: > 100 µM
MDA-MB-435
  GI50: 34.6 µM
  TGI: > 100 µM
KM12 colon
  GI50: 48.2 µM
  TGI: > 100 µM
NCI-H522 lung
  GI50: 18 µM
  TGI: 43.4 µM
HCC-2998 colon
  GI50: 64.6 µM
  TGI: > 100 µM
NCI/ADR-RES ovarian
  GI50: > 100 µM
  TGI: > 100 µM
RPMI-8226 leukemia
  GI50: 22.8 µM
  TGI: 58.7 µM
HCT-15 colon
  GI50: 28.6 µM
  TGI: > 80.3 µM
CCRF-CEM leukemia
  GI50: 21.3 µM
  TGI: 66.2 µM
MDA-MB-231 breast
  GI50: 52.2 µM
  TGI: > 100 µM
A549 NSCLC
  GI50: > 75.1 µM
  TGI: > 100 µM
U251 CNS
  GI50: 55.3 µM
  TGI: > 100 µM
SK-MEL-5 melanoma
  GI50: 25.4 µM
  TGI: 75.2 µM
OVCAR-8 ovarian
  GI50: 52.5 µM
  TGI: > 100 µM
UACC-257 melanoma
  GI50: 80.9 µM
  TGI: > 100 µM
EKVX NSCLC
  GI50: 73.9 µM
  TGI: > 100 µM
COLO 205 colon
  GI50: 30.6 µM
  TGI: 72.6 µM
ACHN renal
  GI50: 33.4 µM
  TGI: > 92.8 µM
MALME-3M melanoma
  GI50: 29.3 µM
  TGI: 70.6 µM
MCF7 breast
  GI50: 32.6 µM
  TGI: > 100 µM
HS 578T breast
  GI50: 34.8 µM
  TGI: 94.2 µM
HL-60(TB) leukemia
  GI50: 5.71 µM
  TGI: 36.3 µM
HOP-62 NSCLC
  GI50: > 100 µM
  TGI: > 100 µM
HOP-92 NSCLC
  GI50: 35 µM
  TGI: > 87.5 µM
